From ChEMBL document CHEMBL1149731, “Aflavarin and -Aflatrem: New Anti-Insectan Metabolites from the Sclerotia of Aspergillus flavus” (1992) come the findings set out here.

≈ marks a conversion by molar mass, not a printed value. Calls of active or inactive are those of the source. No cut-off for these calls is given here.

The test system of assay [1] is Helicoverpa zea. As to the kind of experiment: Insecticidal activity against Helicoverpa zea assessed as reduction in growth rate. It counts as functional, organism-based.
For assay [2], the system named is Carpophilus. Kind of assay: Antiinsectan activity against adult Carpophilus hemipterus assessed as feeding reduction at 100 ppm administered through test diet relative to control. It counts as functional.
In assay [3] the test system is Carpophilus. Kind of assay: Antiinsectan activity against Carpophilus hemipterus larvae assessed as feeding reduction at 100 ppm administered through test diet relative to control. It counts as functional.
Assay [4] concerns Carpophilus. As to the kind of experiment: Insecticidal activity against Carpophilus hemipterus. It counts as functional, organism-based.
Assay [5] has as its system Candida albicans. As to the kind of experiment: Antifungal activity against Candida albicans at 100 ug/disk by standard disk assay. It counts as functional, organism-based.
Assay [6] concerns A549. Kind of assay: Cytotoxicity against human A549 cells. It counts as functional. Conditions: read-out: ED50 (the source's name).
Assay [7] deals with Bacillus subtilis. As to the kind of experiment: Antibacterial activity against Bacillus subtilis at 100 ug/disk by standard disk assay. It counts as functional, organism-based.
Assay [8] has as its system HT-29. Kind of assay: Cytotoxicity against human HT-29 cells. It counts as functional. To be noted: read-out: ED50 (the source's name).
For assay [9], the system named is MCF7. Kind of assay: Cytotoxicity against human MCF7 cells. It counts as functional. To be noted: read-out: ED50 (the source's name).
The subject of assay [10] is Staphylococcus aureus. Kind of assay: Antibacterial activity against Staphylococcus aureus at 100 ug/disk by standard disk assay. It counts as functional, organism-based.

With `C=CC(C)(C)c1ccc2[nH]c3c(c2c1)C[C@@H]1CC[C@@]2(O)C4=CC(=O)[C@@H]5O[C@]4(CC[C@]2(C)[C@@]31C)OC5(C)C`, in [1], the result was Active.
For the compound `COc1cc(C)c2c(OC)cc(=O)oc2c1-c1c(O)cc(C)c2c(OC)cc(=O)oc12`, the outcome in assay [2] and in assay [3] was inactive.
For the compound `COc1cc(CO)c2c(OC)c(-c3c(OC)cc(C)c4c(OC)cc(=O)oc34)c(=O)oc2c1` [AFLAVARIN], the outcome in [4] was Active. Besides, the result in assay [5], in assay [7] and in [10] was inactive. For the same compound, the EC50 in assay [6] was found to be 7.5 µg/mL (≈ 16.5 µM); in assay [8], 5.8 µg/mL (≈ 12.8 µM); in assay [9] it was 55 µg/mL (≈ 121 µM). Also, the Activity in assay [2] stood at 66%; in [3], 53%.
